How the values were obtained:
[1] = test system: early p97 HPV16 promoter; assay: luciferase assay of p97 promoter activity in keratinocytes transfected with LCR16_Luc; format: cell-based, human
Protocol: The impact of treatment with epigenetic inhibitors (demethylation agents) on the activity of the p97 promoter is assessed using luciferase assay. Normal human keratinocytes transfected with the reporter plasmid LCR16_Luc, which contains the complete LCR fragment of the HPV-16 cloned in front of the luciferase gene were grown to about 50-60% confluence. Cells were treated with 2 μM and 4 μM 5-azacytidin for 24 and 72 hs.

[2] = phase I and II trials, systemic therapy; cited from earlier work
[3] = test system: normal human firoblasts; details: normal human fibroblasts; cited from earlier work

| SMILES | p97 promoter activity reduced to ([1]; 2 μM, undifferentiated or differentiated cells, FIG. 9) | p97 promoter activity ([1]; 4 μM, undifferentiated and differentiated cells, FIG. 9) | activity of the early p97 promoter ([1]; normal human keratinocytes, LCR16_Luc reporter, 2 μM and 4 μM for 24 and 72 hs) | dose-limiting toxicity [2] | most commonly reported non-hematologic adverse effect [2] | basal level and TGFβ-induced collagen biosynthesis [3] |
| --- | --- | --- | --- | --- | --- | --- |
| Nc1ncn([C@@H]2O[C@H](CO)[C@@H](O)[C@H]2O)c(=O)n1 [5-azacytidine, 5-Azacytidine] | 40-60% | significantly reduced to the basal level | decreased the activity of the early p97 promoter in a dose dependent manner | myelosuppression | nausea and vomiting | inhibits |
| Nc1ncn([C@H]2C[C@H](O)[C@@H](CO)O2)c(=O)n1 [decitabine, 5-Aza-20-deoxycytidine] | – | – | – | myelosuppression | nausea and vomiting | – |

From US9145444B2, “Compounds and methods associated with differential methylation of human papilloma virus genomes in epithelial cells” (Ruprecht-Karls-Universität Heidelberg, priority 2007, dated 2015)
